Laboratory results from patent publication US9107967B2, “Apparatus and method for treating stored crops infected with toxins” (Pureline Treatment Systems, LLC, priority 2010, dated 2015).

Legend:
[1] = Treatment of mycotoxin-infected corn kernels with aqueous ClO2 solution, then testing ground corn for mycotoxins; settings: corn kernels exposed to 400 ppm aqueous ClO2 solution for two hours; untreated corn 9 ppm
Description: Applicants conducted a study in order to determine the effects of ClO2 on toxins. Applicants obtained corn infected with mycotoxins and mycotoxin-producing microorganisms. Applicants exposed the corn kernels to an aqueous ClO2 solution with a concentration of 400 ppm for two hours. Applicants drained the aqueous ClO2 solution from the corn. Applicants ground the corn and tested for the presence of mycotoxins. Applicants also ground untreated corn from the batch and tested that corn for the presence of mycotoxins.

[2] = Treatment of mash from mycotoxin-infected ground corn with heated aqueous ClO2 solution, then testing mash for mycotoxins; settings: mash exposed to 200 ppm aqueous ClO2 solution heated to 185° F for two hours; untreated 12 ppm
Protocol: Applicants conducted another study in order to determine the effects of ClO2 on toxins. Applicants obtained corn infected with mycotoxins and mycotoxin-producing microorganisms. Applicants ground the corn kernels and mixed them with water to form a mash, similar to what is used in various fermentation plants. Applicants heated an aqueous ClO2 solution with a concentration of 200 ppm to 185° F. Applicants then exposed the mash to the heated aqueous chlorine dioxide solution for two hours. Applicants drained the aqueous ClO2 solution from the mash. Applicants tested the mash for the presence of mycotoxins. Applicants also tested untreated mash from the same batch for the presence of mycotoxins.

[3] = Application of aqueous ClO2 solution to wheat during tempering or sweating; settings: 75 ppm aqueous ClO2 solution applied for 12 hours during tempering; approximately 12 ppm prior to application
Protocol: During processing of certain grains, such as wheat, a sweating or tempering step is used. During this step, the grain is contacted with water. The grain can be contacted with water for various amounts of time. In some examples the contacting occurs over night, in other examples the contacting occurs from 12-24 hours. This can be used as an opportunity the introduce an aqueous ClO2 solution.
Applicants conducted a study where a 75 ppm aqueous ClO2 solution was applied to wheat during tempering or sweating. The aqueous ClO2 solution was applied to the wheat for 12 hours.

[O][Cl+][O-] [ClO2, chlorine dioxide]
concentration of Vomitoxin in treated corn [1]: 2.3 ppm
concentration of Vomitoxin in treated corn (mash) [2]: 0.5 ppm
concentration of Vomitoxin in wheat after application [3]: approximately 1 ppm
